This note sets out measurements from US20240423215A1, “COMPOSITION FOR COATING PLANT SEED” (priority 2022, published 2024).

Common to all, as to assay type: in vivo
One experiment relates to rice. Briefly: Cultivation of rice from coated seeds under non-stress conditions (Example 7). As to conditions: 3 weeks after seeding. On the procedure:
Rice seeds (100 g; the variety: Emimaru) were coated with 800 μl of a coating solution containing tryptophan, oxidized glutathione, polyvinyl alcohol, and a coloring dye in water using a coater (SATEC). Coating was performed using either or both of tryptophan in an amount of 0 g, 2.25 g, or 5 g and oxidized glutathione in an amount of 0 g or 75 g per ton of seeds.
Culture soil was filled into 12-cm vinyl pots, and the coated rice seeds were seeded at 5 grains/pot. Cultivation was performed in a glass greenhouse, and the fresh weight of the aboveground part was inspected 21 days after seeding. The test was repeated 6 times, and the average was determined.
(§1) The measured fresh weight of the aboveground part of plants in groups each treated with different amounts of tryptophan and oxidized glutathione was indicated as the rate of change (%), relative to the fresh weight of the aboveground part of plants in the test group (control group) treated with a coating solution not containing tryptophan or oxidized glutathione.

Experiment [1] relates to Zea mays. In words: Cultivation of Zea mays from seeds coated with tryptophan and reduced glutathione under salt stress conditions (Comparative Example 2). As to conditions: salt stress (NaCl 6.0 g/l soil); 3 weeks after seeding; Trp 0.225 g and/or GSH 1-75 g per MT-seeds; FIG. 15.
Procedure: Dent corn seeds (100 g; the variety: Snow-dent “Otoha”) were coated with 800 μl of a coating solution containing 0.225 g of tryptophan per MT-seeds, 0, 1, 5, 15, or 75 g of reduced glutathione per MT-seeds, polyvinyl alcohol, and a coloring dye in water using a coater (SATEC).
Culture soil containing sodium chloride at 6.0 g/l of the soil was filled into 7.5-cm pots, and the coated dent corn seeds were seeded at 1 grain/pot. Cultivation was performed in a glass greenhouse, and inspection was performed 21 days after seeding. The fresh weight of the aboveground part was measured. The test was repeated 9 times, and the average was determined.
The fresh weight of the aboveground part measured for the test groups treated with different amounts of tryptophan and reduced glutathione was indicated as the rate of change (%), relative to that of the test group (the control group) treated with a coating solution not containing tryptophan or reduced glutathione.
Experiment [2] deals with wheat. In words: Cultivation of wheat from coated seeds under non-stress conditions (Example 3). As to conditions: 2 weeks after seeding, fresh weight of aboveground part. On the procedure: Wheat seeds (100 g, Quintus) were coated with 800 μl of a coating solution containing tryptophan, oxidized glutathione, polyvinyl alcohol, and a coloring dye in water using a coater (SATEC). Coating was performed using either or both of tryptophan in an amount of 0 g, 0.01 g, 0.25 g, 5 g, or 10 g and oxidized glutathione in an amount of 0 g, 6 g, or 300 g per ton of seeds.
Culture soil was filled into a 96-well cell tray, the coated wheat seeds were seeded at 1 grain/cell, and inspection was performed 2 weeks after seeding. The height and the fresh weight of the aboveground part were measured, and the density (the fresh weight of the aboveground part/the height) was determined. Groups each consisting of 6 plants were subjected to the test, and the test was repeated 4 times.
as §1
The density (the fresh weight of the aboveground part/the height) of the test groups was indicated as the rate of change (%), relative to the density of the control group.

The subject of experiment [3] is Zea mays. In words: Cultivation of Zea mays from coated seeds under salt stress conditions (Example 2). As to conditions: 3 weeks after seeding, fresh weight of aboveground part. How it is done: Dent corn seeds (100 g; the variety: Snow-dent “Otoha”) were coated with 800 μl of a coating solution containing tryptophan, oxidized glutathione, polyvinyl alcohol, and a coloring dye in water using a coater (SATEC). Coating was performed using either or both of tryptophan in an amount of 0 g, 0.009 g, 0.045 g, 0.1225 g, 0.225 g, 0.45 g, or 5 g and oxidized glutathione in an amount of 0 g, 15 g, or 75 g per ton of seeds.
Culture soil containing sodium chloride at 6.0 g/l of the soil was filled into 7.5-cm pots, and the coated dent corn seeds were seeded at 1 grain/pot. Cultivation was performed in a glass greenhouse, and inspection was performed 21 days after seeding. The height, the fresh weight of the aboveground part, and the number of leaves were measured, and the density (the fresh weight of the aboveground part/the height) was determined. The test was repeated 9 times, and the average was determined.
The rates of changes (%) in the height, the number of leaves, the fresh weight of the aboveground part, and the density (the fresh weight of the aboveground part/the height) measured or determined for the test groups, relative to those of the control group were determined.

The subject of experiment [4] is wheat. In words: Cultivation of wheat from coated seeds under low-temperature stress conditions (Example 9). As to conditions: 6 weeks after seeding. How it is done:
Wheat seeds (100 g; the variety: Yumechikara) were coated with 800 μl of a coating solution containing tryptophan, oxidized glutathione, polyvinyl alcohol, and a coloring dye in water using a coater (SATEC). Coating was performed using either or both of 5 g of tryptophan per MT-seeds and 75 g of oxidized glutathione per MT-seeds. Culture soil was filled into 7.5-cm pots, and the coated wheat seeds were seeded at 1 grain/pot. Cultivation was performed in a glass greenhouse before germination, the germinated plants were transferred to and cultivated in an artificial climate chamber with a diurnal period of 12 hours set at 10° C. and a nocturnal period of 12 hours set at 5° C., and inspection was performed 6 weeks after seeding. The dry weight of the aboveground part and the dry weight of the underground part were measured. The test was repeated 8 times, and the average was determined.
In the table, “%” indicates a value calculated relative to the weight without treatment, which is designated as 100%. […] With the use of glutathione in combination with tryptophan, in addition, the dry weight of the aboveground part was increased by 17% and the dry weight of the underground part was increased by 24%, relative to the control group. Such increase was significant. […] As described above, use of glutathione in combination with tryptophan would exert effects of promoting the healthy growth under low-temperature stress conditions.

The test system of experiment [5] is Zea mays. Briefly: Cultivation of Zea mays from seeds coated with tryptophan and reduced glutathione under non-stress conditions (Comparative Example 1). As to conditions: 3 weeks after seeding, Trp 0.225 g and/or GSH 1-75 g per MT-seeds, FIG. 14.
Procedure: Dent corn seeds (100 g; the variety: Snow-dent “Otoha”) were coated with 800 μl of a coating solution containing 0.225 g of tryptophan per ton of seeds (i.e., MT-seeds), 0, 1, 5, 15, or 75 g of reduced glutathione per MT-seeds, polyvinyl alcohol, and a coloring dye in water using a coater (SATEC).
Culture soil was filled into 12-cm vinyl pots, and the coated dent corn seeds were seeded at 4 grains/pot. After germination, a differently grown strain was thinned to retain 3 strains in a pot. Cultivation was performed in a glass greenhouse, and inspection was performed 21 days after seeding. The fresh weight of the aboveground part was measured. The test was repeated 6 times, and the average was determined.
In experiment [6] the test system is Zea mays. In words: Field test of Zea mays, ear yield (Example 8). As to conditions: 0.25 g tryptophan and/or 75 g GSSG per ton of seeds. On the procedure:
As a control group, seeds without coating were prepared.
• Location: the Wilderen MAR field, the Kingdom of Belgium • Variety: Like IT • Date of seeding: Apr.
Cultivation was performed in accordance with the conventional fertilization management technique and pest management technique, and the yield was inspected. • Inspection of yield: 120 strains/group; the number of repetition: 4

For experiment [7], the system named is Zea mays. In words: Cultivation of Zea mays from coated seeds under non-stress conditions (Example 1). As to conditions: 3 weeks after seeding. How it is done: Dent corn seeds (100 g; the variety: Snow-dent “Otoha”) were coated with 800 μl of a coating solution containing tryptophan, oxidized glutathione, polyvinyl alcohol, and a coloring dye in water using a coater (SATEC). Coating was performed using either or both of tryptophan in an amount of 0 g, 0.045 g, 0.1225 g, 0.45 g, 5 g, or 50 g and oxidized glutathione in an amount of 0 g, 3 g, 15 g, 150 g, or 300 g per ton of seeds.
Culture soil was filled into 12-cm vinyl pots, and the coated dent corn seeds were seeded at 4 grains/pot. After germination, a differently grown strain was thinned to retain 3 strains in a pot. Cultivation was performed in a glass greenhouse, and inspection was performed 21 days after seeding. The height and the fresh weight of the aboveground part were measured, and the density (the fresh weight of the aboveground part/the height) was determined. The test was repeated 6 times, and the average was determined.
(§2) The measured fresh weight of the aboveground part of plants in groups each treated with different amounts of tryptophan and oxidized glutathione was indicated as the rate of change (%), relative to the fresh weight of the aboveground part of plants in the test group (control group) treated with a coating solution not containing tryptophan or oxidized glutathione. […]

Experiment [8] deals with wheat. Briefly: Cultivation of wheat from coated seeds under salt stress conditions (Example 4). As to conditions: fresh weight of aboveground part. How it is done: Wheat seeds (100 g; the variety: Yumechikara) were coated with 800 μl of a coating solution containing tryptophan, oxidized glutathione, polyvinyl alcohol, and a coloring dye in water using a coater (SATEC). Coating was performed using either or both of tryptophan in an amount of 0 g, 0.225 g, 2.25 g, 5 g, 10 g, or 50 g and oxidized glutathione in an amount of 0 g, 15 g, or 300 g per ton of seeds.
Culture soil containing sodium chloride at 4.0 g/l of the soil was filled into 7.5-cm pots, and the coated wheat seeds were seeded at 1 grain/pot. Cultivation was performed in a glass greenhouse, and inspection was performed 16 days after seeding. The height and the fresh weight of the aboveground part were measured, and the density (the fresh weight of the aboveground part/the height) was determined. The test was repeated 9 times, and the average was determined.
as §2

The next experiment concerns soybean. Briefly: Cultivation of soybean from coated seeds under salt stress conditions (Example 6). As to conditions: 3 weeks after seeding, fresh weight of aboveground part. On the procedure: Soybean seeds (100 g; the variety: Fukuyutaka) were coated with 800 μl of a coating solution containing tryptophan, oxidized glutathione, polyvinyl alcohol, and a coloring dye in water using a coater (SATEC). Coating was performed using either or both of tryptophan in an amount of 0 g, 0.045 g, 0.225 g, 0.45 g, or 5 g and oxidized glutathione in an amount of 0 g, 15 g, or 75 g per ton of seeds.
Culture soil containing sodium chloride at 1.0 g/l of the soil was filled into 7.5-cm pots, and the coated soybean seeds were seeded at 1 grain/pot. Cultivation was performed in a glass greenhouse, and inspection was performed 21 days after seeding. The fresh weight of the aboveground part, the density (the fresh weight of the aboveground part/the height), and the dry weight of the underground part were measured. The test was repeated 9 times, and the average was determined.
as §2

Setting [9] is: low-temperature stress (10° C./5° C.), Trp 5 g and/or GSSG 75 g per MT-seeds.
The mark [10] stands for this setting: low-temperature stress, Trp 5 g and/or GSSG 75 g per MT-seeds.

Consider `N[C@@H](Cc1c[nH]c2ccccc12)C(=O)O` [tryptophan, L-tryptophan], for which the “effects of promoting the initial growth” value with rice is “Effects of promoting the initial growth were attained to some extent”; in the experiment with wheat [2], “No effects of promoting the initial growth were attained”; in the experiment on Zea mays [3] it was “No effects of promoting the initial growth were attained”; in the experiment with wheat [4] (low-temperature stress), “not observed”; with Zea mays [7] (fresh weight of aboveground part), “No effects of promoting the initial growth were attained”; in the experiment on wheat [8], “No effects of promoting the initial growth were attained”. The “effects of promoting the initial growth” value in the experiment with soybean is reported as “No effects of promoting the initial growth were attained”. Further, the “rate of change in the fresh weight of the aboveground part relative to control group” value is 1% with Zea mays [1] and 4% in the experiment with Zea mays [5]. In addition, the “Dry weight of aboveground part” value in the experiment with wheat [4] (setting [9]) turned out to be 0.24 g. Further, the “Dry weight of underground part” value in the experiment with wheat [4] (setting [9]) is reported as 0.08 g. Besides, the “Dry weight of aboveground part, relative to without treatment (100%)” value in the experiment on wheat [4] (setting [10]) is 97%. Further, the “Dry weight of underground part, relative to without treatment (100%)” value with wheat [4] (setting [10]) is 101%. For the same molecule, in the experiment on Zea mays [6] (FIG. 16), the “ear yield relative to the control group without coating (100%)” value is 100.4%. In the experiment on Zea mays [6] (relative to control group), the “increase in the ear yield” value was “An increase was not observed in the yield”. Besides, in the experiment with Zea mays [7] (either or both of 0.1225 g tryptophan and 150 g GSSG per ton of seeds), the “increase in the fresh weight of the aboveground part compared with no treatment” value is recorded as 3%.
